Results reported in PubChem BioAssay AID248 (DTP/NCI, 2004).
Inconclusive results and toxic doses are left out. Rule as the data show it: active = T/C of 150% or more; inactive = T/C below 125%.

System: L1210 leukemia ip in BDF1 mice, survival T/C
Test: NCI In Vivo Anticancer Drug Screen. Data for tumor model L1210 Leukemia (intraperitoneal) in B6D2F1 (BDF1) mice
Conditions: endpoint: mean survival time, higher = longer survival
Summary of the method: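 Read-out is survival time, reported as the treated-group measurement over the vehicle-control measurement.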

[1] = dose: 100.0 mg/kg/injection, schedule: Q01DX009 (ip), vehicle: saline with Tween-80
[2] = dose: 200.0 mg/kg/injection, schedule: Q01DX009 (ip), vehicle: saline with Tween-80
[3] = dose: 400.0 mg/kg/injection, schedule: Q01DX009 (ip), vehicle: saline with Tween-80
[4] = dose: 100.0 mg/kg/injection, schedule: Q04DX003 (ip), vehicle: saline
[5] = dose: 200.0 mg/kg/injection, schedule: Q04DX003 (ip), vehicle: saline
[6] = dose: 100.0 mg/kg/injection, schedule: Q01DX009 (ip), vehicle: Klucel (hydroxypropylcellulose) (HPC)
[7] = dose: 200.0 mg/kg/injection, schedule: Q01DX009 (ip), vehicle: Klucel (hydroxypropylcellulose) (HPC)
[8] = dose: 200.0 mg/kg/injection, schedule: Q04DX003 (ip), vehicle: Klucel (hydroxypropylcellulose) (HPC)
[9] = dose: 400.0 mg/kg/injection, schedule: Q04DX003 (ip), vehicle: Klucel (hydroxypropylcellulose) (HPC)
[10] = dose: 12.5 mg/kg/injection, schedule: Q01DX009 (ip), vehicle: saline
[11] = dose: 25.0 mg/kg/injection, schedule: Q01DX009 (ip), vehicle: saline
[12] = dose: 100.0 mg/kg/injection, schedule: Q01DX001 (ip), vehicle: saline
[13] = dose: 200.0 mg/kg/injection, schedule: Q01DX001 (ip), vehicle: saline
[14] = dose: 400.0 mg/kg/injection, schedule: Q01DX001 (ip), vehicle: saline
[15] = dose: 100.0 mg/kg/injection, schedule: Q04DX002 (ip), vehicle: Klucel (hydroxypropylcellulose) (HPC)
[16] = dose: 200.0 mg/kg/injection, schedule: Q04DX002 (ip), vehicle: Klucel (hydroxypropylcellulose) (HPC)
[17] = dose: 400.0 mg/kg/injection, schedule: Q04DX002 (ip), vehicle: Klucel (hydroxypropylcellulose) (HPC)
[18] = dose: 50.0 mg/kg/injection, schedule: Q01DX001 (ip), vehicle: saline

Measured: T/C

CCCC(C(=O)O)c1ccccc1C (stereo not drawn)
inactive: [1] 102 % of control | dose: 100.0 mg/kg/injection, schedule: Q04DX003 (ip), vehicle: saline with Tween-80 102 % of control | [2] 98 % of control | dose: 200.0 mg/kg/injection, schedule: Q04DX003 (ip), vehicle: saline with Tween-80 97 % of control | [3] 105 % of control | dose: 400.0 mg/kg/injection, schedule: Q04DX003 (ip), vehicle: saline with Tween-80 107 % of control

CCCCC(C)(O)CCC (stereo not drawn)
inactive: dose: 50.0 mg/kg/injection, schedule: Q01DX001 (ip), vehicle: carboxymethylcellulose (CMC) 104 % of control | dose: 100.0 mg/kg/injection, schedule: Q01DX001 (ip), vehicle: carboxymethylcellulose (CMC) 101 % of control | dose: 200.0 mg/kg/injection, schedule: Q01DX001 (ip), vehicle: carboxymethylcellulose (CMC) 98 % of control | dose: 400.0 mg/kg/injection, schedule: Q01DX001 (ip), vehicle: carboxymethylcellulose (CMC) 89 % of control

COC(=O)c1cc2ccncc2c2sc3ccccc3c12
inactive: dose: 100.0 mg/kg/injection, schedule: Q01DX009 (ip), vehicle: saline 97 % of control | [4] 90 % of control | dose: 200.0 mg/kg/injection, schedule: Q01DX009 (ip), vehicle: saline 93 % of control | [5] 92 % of control | dose: 400.0 mg/kg/injection, schedule: Q01DX009 (ip), vehicle: saline 95 % of control | dose: 400.0 mg/kg/injection, schedule: Q04DX003 (ip), vehicle: saline 90 % of control

C=C(Br)CNC(=O)Nc1ccccn1
inactive: [6] 93 % of control | [7] 96 % of control

O=C(NCCO)Nc1ccc(Cl)c(Cl)c1
inactive: [6] 100 % of control | [7] 103 % of control | [8] 101 % of control | dose: 400.0 mg/kg/injection, schedule: Q01DX009 (ip), vehicle: Klucel (hydroxypropylcellulose) (HPC) 101 % of control | [9] 87 % of control

COc1ccc2c(c1)C13CCN(C)C(C2)C1CCC1(C3)OCCO1 (stereo not drawn)
inactive: [10] 103 % of control | [11] 94 % of control | dose: 50.0 mg/kg/injection, schedule: Q01DX009 (ip), vehicle: saline 97 % of control | [12] 109 % of control | [6] 106 % of control | [4] 105 % of control | [13] 101 % of control | [5] 86 % of control | [14] 95 % of control

O=C(O)c1ccc2c(c1Sc1ccccc1)C(=O)c1ccccc1C2=O
inactive: dose: 75.0 mg/kg/injection, schedule: Q01DX001 (ip), vehicle: saline 104 % of control | dose: 150.0 mg/kg/injection, schedule: Q01DX001 (ip), vehicle: saline 107 % of control | dose: 300.0 mg/kg/injection, schedule: Q01DX001 (ip), vehicle: saline 91 % of control

O=c1c2ccccc2[nH]c(=S)n1CCc1ccccn1
inactive: [15] 100 % of control | [16] 95 % of control | [17] 89 % of control

NC(=O)N1CCN(c2ccccc2)CC1
inactive: dose: 100.0 mg/kg/injection, schedule: Q04DX003 (ip), vehicle: Klucel (hydroxypropylcellulose) (HPC) 95 % of control | [8] 97 % of control | [9] 101 % of control

NC(CCc1c[nH]c(=O)[nH]c1=O)C(=O)O (stereo not drawn)
inactive: [18] 104 % of control | [12] 100 % of control | [13] 98 % of control | [14] 110 % of control

OCCOc1nc(OCCO)c(Cl)c(C(Cl)(Cl)Cl)n1
inactive: [1] 98 % of control | [2] 93 % of control | [3] 86 % of control

COc1ccc(OC)c(NC(=O)NNc2c([N+](=O)[O-])cc(C(F)(F)F)cc2[N+](=O)[O-])c1
inactive: dose: 100.0 mg/kg/injection, schedule: Q01DX009 (ip), vehicle: other 97 % of control | dose: 200.0 mg/kg/injection, schedule: Q01DX009 (ip), vehicle: other 89 % of control

CCOC(=O)CN(C)C(=O)OCC
inactive: [18] 104 % of control | [12] 101 % of control | [13] 117 % of control | [14] 101 % of control

O=C(Nc1ccccc1)Oc1ccc(Cl)cc1Cl
inactive: [15] 104 % of control | [16] 110 % of control | [17] 96 % of control

CC1OC(=O)C(C2OC2C)=CC1O (stereo not drawn)
inactive: [10] 97 % of control | dose: 12.5 mg/kg/injection, schedule: Q04DX003 (ip), vehicle: saline 101 % of control | [11] 108 % of control | dose: 25.0 mg/kg/injection, schedule: Q04DX003 (ip), vehicle: saline 108 % of control | [18] 114 % of control | dose: 50.0 mg/kg/injection, schedule: Q04DX003 (ip), vehicle: saline 92 % of control
